This passage reports IC50 results from publication PMC7464027, “Design of Curcumin and Flavonoid Derivatives with Acetylcholinesterase and Beta-Secretase Inhibitory Activities Using in Silico Approaches” (Molecules, 2020).

In test [1] the target is Acetylcholinesterase (AChE) (Electrophorus electricus, UniProt O42275). The test can be described thus: Ellman's assay with electric eel AChE. The format is biochemical. Background: DTNB colorimetry detects thiols as they appear.
Another test addresses T1, beta-secretase (BACE-1) (Homo sapiens, UniProt P56817).
T1 construct: gene BACE1
The test can be described thus: fluorescent BACE-1 activity detection kit (Sigma-Aldrich). Format: biochemical.

One may read the IC50 as the concentration that inhibits the measured activity by half. A low value points to greater potency in that assay.

T1 sequence (P56817 46-457): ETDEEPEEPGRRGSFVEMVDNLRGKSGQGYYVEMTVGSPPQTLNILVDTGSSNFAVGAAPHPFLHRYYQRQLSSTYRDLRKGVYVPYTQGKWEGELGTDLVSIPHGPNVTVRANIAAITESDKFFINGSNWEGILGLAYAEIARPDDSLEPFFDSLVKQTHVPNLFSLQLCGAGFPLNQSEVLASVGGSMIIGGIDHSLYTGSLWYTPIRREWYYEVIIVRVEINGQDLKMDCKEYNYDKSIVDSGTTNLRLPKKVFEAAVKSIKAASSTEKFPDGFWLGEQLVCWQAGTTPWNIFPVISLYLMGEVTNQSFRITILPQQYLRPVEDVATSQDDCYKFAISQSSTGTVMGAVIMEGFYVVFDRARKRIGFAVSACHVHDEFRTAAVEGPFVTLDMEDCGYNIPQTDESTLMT
Chain of Acetylcholinesterase (AChE) (O42275 24-633): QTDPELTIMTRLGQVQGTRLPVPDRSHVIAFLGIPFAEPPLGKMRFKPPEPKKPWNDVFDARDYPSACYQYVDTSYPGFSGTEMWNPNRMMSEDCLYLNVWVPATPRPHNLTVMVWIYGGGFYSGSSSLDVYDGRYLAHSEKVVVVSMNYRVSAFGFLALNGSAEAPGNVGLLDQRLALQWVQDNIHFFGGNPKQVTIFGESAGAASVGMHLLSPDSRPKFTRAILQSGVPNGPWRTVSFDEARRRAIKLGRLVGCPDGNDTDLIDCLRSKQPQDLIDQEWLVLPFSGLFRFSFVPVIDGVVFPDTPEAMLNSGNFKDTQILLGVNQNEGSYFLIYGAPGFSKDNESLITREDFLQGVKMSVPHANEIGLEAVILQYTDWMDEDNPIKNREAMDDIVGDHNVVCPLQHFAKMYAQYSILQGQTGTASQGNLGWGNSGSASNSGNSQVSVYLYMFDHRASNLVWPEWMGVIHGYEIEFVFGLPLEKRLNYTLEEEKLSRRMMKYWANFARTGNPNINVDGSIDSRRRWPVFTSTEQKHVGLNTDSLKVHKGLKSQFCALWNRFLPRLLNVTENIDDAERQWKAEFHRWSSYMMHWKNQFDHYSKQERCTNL

Take `CCOc1cc(C(=O)O)c(C(=O)CCc2ccccc2)c(N(C)C)c1` [F9, 3-(dimethylamino)-5-ethoxy-2-(3-phenylpropanoyl)benzoic acid]: the results for the IC50 (in test [1]; on beta-secretase (BACE-1)) were 30 ± 1.24 µM and 1.85 ± 0.33 µM, respectively.
On to `CN(C)c1cccc(CCC(=O)c2cc(O)ccc2N(C)C)c1` [F24, 1-(2-(dimethylamino)-5-hydroxyphenyl)-3-(3-(dimethylamino)phenyl)propan-1-one], for which the values for the concentration for half-maximal inhibition (IC50) (in test [1]; against beta-secretase (BACE-1)) were 80.5 ± 3.07 µM and 3.52 ± 0.77 µM, respectively.
